Assay results taken from US9409901B2, “Compositions and methods for treating or preventing diseases or disorders associated with misregulated EIF4E” (Bantam Pharmaceutical, LLC, priority 2012, dated 2016).
Read-outs that look alike come from different tables or passages of the source. Each block holds one compound with its values, some of them ahead of it.

Columns and labels:
[1] = test system: AU565 (breast cancer ER−/PR−, her2−nue+); assay: Cell proliferation assay, AU565; assay type: cell-based
Method: Cells: AU565 (breast cancer ER^−/PR^−, her2^−nue^+) • 1. Cells were resuspended in media containing 10% FBS and 2× gentamicin. Resuspended cells were transferred to an assay plate (100 μL aliquots; 5,200 cells/well). • 2. test compound(s) were serially diluted in assay media. Aliquots of 100 μLof the test compound solution was added to the resuspended cells, creating a total volume of 200 μL. • 3. Plates were incubated at 37 C for 91 hours. • 4. 20 μL of Promega Substrate CellTiter 96 Aqueous One Solution Reagent was added to each well. • 5. Plates were incubated at 37 C and read at 490 nm.

eIF4E/eIF4G interaction = eIF4E/eIF4G interaction (Homo sapiens, UniProt P06730); assay: Fluorescence polarization (FP) assay of eIF4E/eIF4G interaction; assay type: binding
Method: The effect of the bound compound on the activity of eIF4e was further addressed using a Fluorescence Polarization (FP) assay. The FP assay was used to monitor the eIF4E/eIF4G interaction. The eIF4E/eIF4G complex was exposed to Structure 10, and the dissociation of eIF4G from eIF4E was measured using the FP assay.
18 amino acid FITC-labeled 4G peptide (Moerke, N. et al., Cell, 128:257-67, 2007).
Compounds as 12.5 mM solutions in DMSO
A master mixture of 20 nM peptide, 400 μM recombinant […] in NMR buffer was made. 240 μL of this master mix was transferred to a separate tube and 3.2 μL of DMSO was added. 30 μL aliquots of this mixture was then added to each of six wells of 384-well black plate. These are the maximum polarization wells. The minimum polarization wells were determined using peptide only at a concentration of 20 nM. The experimental wells were created by adding 3.2 μL of each 12.5 mM solution of a test compound to the master mixture. The compound mixtures were serially diluted to create a six point dose response curve (with six different concentrations of each test compound).
The triplicate averages of the readings were determined. […] The activity of compound at each concentration was determined by comparing the FP signal in the presence of compound to the control (no compound) value. The percent inhibition is =100−((FP compound/FP control)×100).

polysomes = assay: Polysome profile; assay type: cell-based; details: sucrose gradient, FIG. 11
Method: Cells, plated in 140 mm culture dishes; in mid log phase of growth (4-5 plates per treatment. Test compounds as 40 mM master solutions in DMSO Lysis buffer: 15 mM Tris pH 7.4, 15 mM MgCl2, 150 mM NaCl, 1% TritonX-100, 100 μg/mL cycloheximide, 1 mg/mL Heparin. Polysome buffer: 15 mM Tris pH7.4, 15 mM MgCl2, 150 mM NaCl, 100 μg/mL cycloheximide. • 1. Cells were incubated with the desired concentrations of each compound for 2 hours. • 2. Cells were incubated with 100 μg/mL cycloheximide in media for 5 min at 37 C, after which the media was removed from the late, and the plate was put on ice. • 3. Cells were washed twice with 5 mL PBS+100 μg/mL CHX. • 4. Cells were harvested, resuspended in 375 μl of LSB with 1 mM DTT and 100 U/mL RNAsin. • 5. 125 μL of lysis buffer was added, and the cells were subjected to 10 strokes in a homgenizer. • 6. The lysed cells were spun to remove cellular debris, and the supernatant was transferred to fresh tubes. • 7. 15 μL of 5M NaCl and 50 μL of 10 mg/mL Heparin was added. A 20 μL aliquot was taken and stored. The remainder of the supernatant mixture was taken to a volume of 1 mL and the OD260/280 was read. • 8. Aliquots of the supernatant mixture were then applied to a 15-50% sucrose gradient and spun for 105 minutes. The sucrose gradient was then fractionated and the OD254 was measured. […]

[2] = test system: CRL-2813 human melanoma xenografts; assay: CRL-2813 human melanoma xenografts, protein expression (immunostaining); assay type: in vivo, mice
Method: • 1. CRL-2813 cancer cells were grown to obtain ≈5×10^6 cells for each tumor. • 2. Cells were harvested and washed in PBS. • 3. Harvested and washed cells were resuspended in 50% Matrigel™/medium at a density of ≈5×10^6 cells in 100 μL. • 4. 100 μL of the cell suspension was injected subcutaneously • 5. Tumors were grown to ≈150 mm^3 (approx. 2 weeks). • 1. Mice were randomly distributed to treatment and control groups and observed daily. • 2. A test compound or vehicle alone was injected twice daily with at least 10 hrs time interval between doses • Note: Vehicle: corn oil. Drug solution: 35 mg/mL of compound first dissolved in ethanol, mixed with corn oil followed by ethanol evaporation. Dosage: each dose=125 μL vehicle or drug suspension i.p. • 3. Tumor volume was measured weekly. • 4. At the conclusion of experiment, mice were sacrificed, and tumors were removed and weighed. • 5. Remove tumor and weigh • 6. The removed tumors were fixed in formalin solution or flash frozen and processed for histology/immunocytochemistry, or pull-down.
4EGI-1 inhibits expression of oncogenic proteins in melanoma tumors. CRL-2813 human melanoma xenografts were immunostained with antibodies specific for cyclin D1, cyclin E, c-myc, Bcl-2, VEGF or PCNA (FIG. 13). The bar graph is the quantification of immunostaining data (FIG. 14).

HeLa Cells = HeLa Cells FQ IC50; assay type: cell-based
Method: Exposed tryptophan side chains are measured in a spectrometer. Tryptophan, when excited at 280 nm, emits light at 350 nm. The degree to which tryptophan emissions are quenched is a measure of binding of a test compound to eIF4E, as tryptophan side chains become “buried” upon compound binding.
HeLa cells were transfected with a bicistronic dual luciferase construct (2×EMCV Luc Plasmid-firefly and EMCV IRES dependent Renilla luciferase). One reporter construct was CAP-dependent, and the other was not. The cells were treated with DMSO in the presence or absence of various compounds described herein for 10 hours (compounds shown are in 50 μM serial dilutions). Cells were evaluated for Luc activity according to the Promega Dual Glo manufacturer instructions.

eIF4E = eIF4E (Homo sapiens, UniProt P06730); assay: Binding to eIF4E demonstrated by NMR; details: FIG. 7
AU565 = assay: SBH cell AU565; assay type: cell-based; details: AU565 cells
[3] = Compound solubility in DMSO; assay type: physicochemical
[4] = AU-565, 91 hours, read-out: ED50 (μM), anti-proliferative activity against AU-565
[5] = AU-565 cells, read-out: AU-565 EC50
[6] = fluorescence polarization, some cells give words

eIF4E/eIF4G interaction, sequence (P06730 whole entry, species assumed): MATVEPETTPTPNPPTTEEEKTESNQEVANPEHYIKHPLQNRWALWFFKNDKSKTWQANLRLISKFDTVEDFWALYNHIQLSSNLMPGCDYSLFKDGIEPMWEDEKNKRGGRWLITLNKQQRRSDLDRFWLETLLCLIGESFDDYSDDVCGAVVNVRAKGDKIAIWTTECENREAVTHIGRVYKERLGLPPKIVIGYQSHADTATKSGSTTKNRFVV
eIF4E, sequence (P06730 whole entry, species assumed): as above

SMILES: O=C(O)/C(Cc1ccccc1[N+](=O)[O-])=N/Nc1nc(-c2ccc(Cl)c(Cl)c2)cs1 [Structure 4EGI-1, 4EGI-1]
- polysome density (polysomes): noticeable difference
- expression of oncogenic proteins in melanoma tumors ([2]; cyclin D1, cyclin E, c-myc, Bcl-2, VEGF or PCNA immunostaining): inhibits
- housekeeping proteins (e.g., actin and tubulin) ([2]; xenograft model, FIG. 14): unaffected
- translation of mRNA for growth-promoting and oncogenic proteins ([2]; xenograft model, FIG. 14): down-regulates

SMILES: COc1cccc(-c2nc(Cn3nc(C(=O)O)c4cc(C(F)(F)F)ccc43)sc2C(C)C)c1 [Structure 9]
- EC50 (eIF4E/eIF4G interaction; [6]): 24 to 36 µM

SMILES: COc1cccc(-c2nc(-n3nc(CC(=O)O)c4cc(Cl)ccc43)sc2C(C)C)c1 [Structure 14]
- EC50 (AU565): 21 to 31 µM
- Compound Solubility DMSO [3]: complete

SMILES: COc1cccc(-c2nc(-n3nc(CC(=O)NCC(=O)O)c4cc(Cl)ccc43)sc2C(C)C)c1 [Structure 15]
- EC50 (AU565): 28 to 41 µM
- Compound Solubility DMSO [3]: complete
- FP EC50 (μM) (eIF4E/eIF4G interaction; [6]): some

SMILES: COc1cccc(-c2nc(-n3nc(CC(=O)N(C)CC(=O)O)c4cc(Cl)ccc43)sc2C(C)C)c1 [Structure 16]
- EC50 (AU565): 5.3 to 8 µM
- Compound Solubility DMSO [3]: complete
- FP EC50 (μM) (eIF4E/eIF4G interaction; [6]): good

SMILES: CCc1sc(-n2nc(C(=O)O)c3cc(C(F)(F)F)ccc32)nc1-c1cccc(OC)c1 [Structure 17]
- EC50 [1, 5]: 8.5 to 12.8 µM

SMILES: CCOC(=O)CN(C)C(=O)c1nn(-c2nc(-c3cccc(OC)c3)c(C(C)C)s2)c2ccc(C(F)(F)F)cc12 [Structure 48]
- EC50 (AU565): 12 to 18 µM
- Compound Solubility DMSO [3]: half/less

SMILES: COc1ccc(C[C@H](N)C(=O)N[C@H]2[C@@H](O)[C@H](n3cnc4c(N(C)C)ncnc43)O[C@@H]2CO)cc1 [puromycin]
- polysome density (polysomes): noticeable difference

Further lines, with some results ahead:

- EC50 [1, 4]: 8.5 to 12.8 µM
SMILES: CCc1sc(-n2nc(C(=O)O)c3cc(C(F)(F)F)ccc32)nc1-c1cccc(OC)c1 [Structure 1]
- % Growth Inhibition/μM ([1]; AU-565, at 40 μM): 70/40%

- EC50 [1, 4]: 5.6 to 8.4 µM
- EC50 [1, 5]: 9.1 µM
SMILES: COc1cccc(-c2nc(-n3nc(C(=O)O)c4cc(C(F)(F)F)ccc43)sc2C(C)C)c1 [Structure 2]
- % Growth Inhibition/μM ([1]; AU-565, at 40 μM): 79/40%

- EC50 [1, 5]: 16 to 25 µM
- activity in fluorescence polarization assays (eIF4E/eIF4G interaction): showed activity
SMILES: COc1cccc(-c2nc(-n3nc(C(=O)O)c4cc(C#N)ccc43)sc2C(C)C)c1 [Structure 3]

- EC50 [1, 4]: 21 to 32 µM
- IC50 (HeLa Cells): 48.1 µM
SMILES: O=C(O)/C(Cc1ccccc1[N+](=O)[O-])=N/Nc1nc(-c2ccc(Cl)c(Cl)c2)cs1 [Structure 4EGI-1E, reference compound]
- % Growth Inhibition/μM ([1]; AU-565, at 40 μM): 60/40%

- EC50 [1, 4]: 4.8 to 7.1 µM
- IC50 (HeLa Cells): 26.6 µM
SMILES: O=C(O)/C(Cc1ccccc1[N+](=O)[O-])=N\Nc1nc(-c2ccc(Cl)c(Cl)c2)cs1 [Structure 4EGI-1Z, reference compound]
- % Growth Inhibition/μM ([1]; AU-565, at 10 μM): 30/10%

- EC50 ([1]; Homo sapiens, AU565, AU-565, 91 hours, read-out: ED50 (μM), anti-proliferative activity against AU-565): 1.2 to 1.8 µM
- Binding to eIF4E by NMR (eIF4E): demonstrated
SMILES: COc1cccc(-c2nc(-n3cc(C(=O)N4CCNCC4)c4cc(C(F)(F)F)ccc43)sc2C(C)C)c1 [Structure 10]
- inhibition at 3.1 µM ([1]; Homo sapiens, AU565, AU-565, at 3.1 μM, read-out: % Growth Inhibition/μM): 85%

- EC50 (AU565): 9 to 14 µM
- Compound Solubility DMSO [3]: complete
SMILES: COc1cccc(-c2nc(-n3nc(C(=O)c4nn[nH]n4)c4cc(C(F)(F)F)ccc43)sc2C(C)C)c1 [Structure 13]

- Compound Solubility DMSO [3]: half/less
SMILES: COC(=O)CNC(=O)c1nn(-c2nc(-c3cccc(OC)c3)c(C(C)C)s2)c2ccc(C(F)(F)F)cc12 [Structure 45]
- SBH cell AU565 (μM) (AU565): low

- EC50 (AU565): 18 to 28 µM
- Compound Solubility DMSO [3]: little/no
SMILES: COC(=O)CN(C)C(=O)c1nn(-c2nc(-c3cccc(OC)c3)c(C(C)C)s2)c2ccc(C(F)(F)F)cc12 [Structure 46]

- Compound Solubility DMSO [3]: complete
SMILES: CCOC(=O)CNC(=O)c1nn(-c2nc(-c3cccc(OC)c3)c(C(C)C)s2)c2ccc(C(F)(F)F)cc12 [Structure 47]
- SBH cell AU565 (μM) (AU565): none
